Values after ≈ are worked out from the molar mass of the structure shown. Values joined by “and” are separate entries in the source; they are usually repeats but may differ in a detail not shown here. Identical values can stand only once. Like-named read-outs stand apart in the source and are kept apart here.
Assays:
[1] = tested on: M. tuberculosis H37Rv; test: Minimum inhibitory concentration (MIC) in the MABA; format: cell-based, Mycobacterium tuberculosis
Protocol: (§1) The activity of the compounds of the present invention against Mycobacterium tuberculosis was determined using the following assays conducted by the National Institute of Allergy and Infectious Diseases (NIAID) supports a TB drug acquisition and screening program, the TAACF.
2. Minimum Inhibitory Concentration (MIC)
The MIC is defined as the lowest concentration effecting a reduction in fluorescence of 90% relative to controls. Minimum compound requirements: 1.0 mg.

[2] = tested on: VERO cells; details: for IC50: Table 5, VERO cells
[3] = tested on: VERO cells; test: cells; details: Chlorocebus sabaeus, Table 5
[4] = tested on: Mycobacterium tuberculosis H37Rv (ATCC 27294); test: Primary screen, Microplate Alamar Blue Assay (MABA), percent inhibition; format: cell-based; details: primary screening at 6.25 μg/ml; for inhibition at 6.25 µg/mL: Mycobacterium tuberculosis
Protocol: as §1
To determine the percent inhibition the following assay was conducted. Primary screening was conducted at 6.25 μg/ml (or the molar equivalent of highest molecular weight compound in a given series of congeners) against Mycobacterium tuberculosis H37Rv (ATCC 27294) in BACTEC 12B medium using the Microplate Alamar Blue Assay (MABA). See Collins, L. and S. G. Franzblau. 1997. Microplate alamar blue assay versus BACTEC 460 system for high-throughput screening of compounds against Mycobacterium tuberculosis and Mycobacterium avium. Antimicrob Agents Chemother 41:1004-9, which is herein incorporated by reference.
Minimum compound requirements: 1.0 mg.

[5] = tested on: Plasmodium falciparum chloroquine-susceptible strain D6; test: In vitro antimalarial drug susceptibility assay (radiolabeled hypoxanthine incorporation), strain D6; format: cell-based; details: for Strain D6 IC50: growth inhibition, chloroquine-susceptible strain D6, 66 h incubation; for IC50: Plasmodium falciparum, D6, 66 h, read-out: Strain D6 IC50, growth inhibition, chloroquine-susceptible strain D6, 66 h incubation
[6] = tested on: D6 and W2 P. falciparum clones; format: cell-based, Plasmodium falciparum; details: for Resistance Index: IC50 (W2)/IC50 (D6) ratio
[7] = tested on: Plasmodium falciparum chloroquine-resistant strain W2; test: microbe, parasite or virus in culture; format: cell-based; details: for Strain W2 IC50: growth inhibition, chloroquine-resistant strain W2, 66 h incubation; for IC50: Plasmodium falciparum, W2, 66 h, read-out: Strain W2 IC50, growth inhibition, chloroquine-resistant strain W2, 66 h incubation
[8] = Table 5, Alamar assay, M. tuberculosis H37Rv
[9] = ratio of IC50 in VERO cells to MIC (M. tuberculosis H37Rv)
[10] = Mycobacterium tuberculosis, H37RV, Table 5, Alamar assay, M. tuberculosis H37Rv, read-out: MIC
[11] = Table 5, Alamar assay, read-out: % Inhib
[12] = Mycobacterium tuberculosis, H37RV, Table 3, H37Rv, read-out: MIC

| SMILES | MIC [1, 8] [µg/mL] | SI (selectivity index) [2, 9] | IC50 [3] [µg/mL] | % Inhib ([4]; Table 5, Alamar assay) [%] | Strain D6 IC50 [5] [µg/mL] | Resistance Index [6] | Strain W2 IC50 [7] [µg/mL] | MIC [1, 10] [µg/mL] | inhibition at 6.25 µg/mL [4, 11] [%] | IC50 [7] [µg/mL] | IC50 [2] [µg/mL] | IC50 [5] [µg/mL] | MIC [1, 12] | inhibition at 6.25 µg/mL ([4]; Table 3, H37Rv, read-out: Inhibition (%)) [%] | antimalarial activity in words ([6]; D6 and W2 clones, Table 2) | SI (selectivity index) [2] |
| --- | --- | --- | --- | --- | --- | --- | --- | --- | --- | --- | --- | --- | --- | --- | --- | --- |
| CCC1CCC2(CC1)OOC1(CC[C@]3(C)C4C[C@H](OC(C)=O)[C@@]5(C)C(CC[C@@H]5C(C)CCC(=O)O)C4[C@H](OC(C)=O)C[C@@H]3C1)OO2 (single isomer, unassigned) [9j/1C39, 7α,12α-Diacetoxy-5β-cholan-24-oic acid-3-spiro-6′-(1′,2′,4′,5′-tetraoxacyclohexane)-3′-spiro-1″-((4″S or R)-ethyl)cyclohexane] | 6.25 (≈ 9.63 µM) | 0.15 | 0.95 (≈ 1.46 µM) | 95 | 0.00638 | 1.47 | 0.00936 | – | – | – | – | – | – | – | – | – |
| CCC1CCC2(CC1)OOC1(CC[C@]3(C)C4C[C@H](OC(C)=O)[C@@]5(C)C(CC[C@@H]5C(C)CCC(N)=O)C4[C@H](OC(C)=O)C[C@@H]3C1)OO2 (single isomer, unassigned) [25/1C35, 7α,12α-Diacetoxy-5β-cholan-24-amide-3-spiro-6′-(1′,2′,4′,5′-tetraoxacyclohexane)-3′-spiro-1″-((4″R or S)-ethyl)cyclohexane] | – | 1.48 | 4.65 (≈ 7.18 µM) | – | 0.00544 | 1.27 | – | 3.13 (≈ 4.83 µM) | 100 | 0.00693 (≈ 0.0107 µM) | – | – | – | – | – | – |
| CCC1CCC2(CC1)OOC1(CC[C@]3(C)C4C[C@H](OC(C)=O)[C@@]5(C)C(CC[C@@H]5C(C)CCC(=O)NC)C4[C@H](OC(C)=O)C[C@@H]3C1)OO2 (single isomer, unassigned) [26/1C36, N-Methyl-7α,12α-Diacetoxy-5β-cholan-24-amide-3-spiro-6′-(1′,2′,4′,5′-tetraoxacyclohexane)-3′-spiro-1″-((4″R or S)-ethyl)cyclohexane] | 1.56 (≈ 2.36 µM) | 1.17 | 1.83 (≈ 2.76 µM) | – | 0.00477 | 1.08 | – | – | 99 | 0.00517 (≈ 0.00781 µM) | – | – | – | – | – | – |
| CCC1CCC2(CC1)OOC1(CC[C@]3(C)C4C[C@H](OC(C)=O)[C@@]5(C)C(CC[C@@H]5C(C)CCC(=O)NC)C4[C@H](OC(C)=O)C[C@@H]3C1)OO2 (single isomer, unassigned) [30/1C41, N-Methyl-7α,12α-Diacetoxy-5β-cholan-24-amide-3-spiro-6′-(1′,2′,4′,5′-tetraoxacyclohexane)-3′-spiro-1″-((4″S or R)-ethyl)cyclohexane] | 3.13 (≈ 4.73 µM) | 0.50 | – | 99 | 0.0185 | 0.22 | 0.00407 | – | – | – | 1.59 (≈ 2.4 µM) | – | – | – | – | – |
| CC(=O)O[C@H]1CC2C(C3CC[C@H](C(C)CCC(=O)O)[C@]31C)[C@H](OC(C)=O)C[C@@H]1CC3(CC[C@]21C)OOC1(CCCCC1C)OO3 (stereo partly drawn) [9d/1C16, 7α,12α-Diacetoxy-5β-cholan-24-oic acid-3-spiro-6′-(1′,2′,4′,5′-tetraoxacyclohexane)-3′-spiro-1″-(2″-methyl)cyclohexane] | – | – | – | – | – | 0.56 | – | > 6.25 | 0 | 0.0238 (≈ 0.0375 µM) | – | 0.0429 (≈ 0.0676 µM) | – | – | – | – |
| CC(=O)O[C@H]1CC2C(C3CC[C@H](C(C)CCC(=O)O)[C@]31C)[C@H](OC(C)=O)C[C@@H]1CC3(CC[C@]21C)OOC1(CCC(C)CC1)OO3 (stereo partly shown) [9g/1C17] | – | – | – | – | 0.00097 | 0.64 | 0.00062 | > 6.25 | 21 | – | – | – | > 6.25 µg/mL and > 9.84 µM | 21 | – | – |
| CC(=O)O[C@H]1CC2C(C3CC[C@H](C(C)CCC(=O)O)[C@]31C)[C@H](OC(C)=O)C[C@@H]1CC3(CC[C@]21C)OOC1(CCC(C)CC1)OO3 (stereo partly shown) [9h/1C18] | >6.25 | – | – | 34 | 0.01974 | 0.57 | 0.01126 | – | – | – | – | – | – | – | – | – |
| CCCNC(=O)CCC(C)[C@H]1CCC2C3C(C[C@H](OC(C)=O)[C@@]21C)[C@@]1(C)CCC2(C[C@H]1C[C@H]3OC(C)=O)OOC1(CCCCC1C)OO2 (stereo partly drawn) [16/1C25, N-(n-Propyl)-7α,12α-diacetoxy-5β-cholan-24-amide-3-spiro-6′-(1′,2′,4′,5′-tetraoxacyclohexane)-3′-spiro-1″-(2″-methyl)cyclohexane] | – | – | – | – | – | 0.71 | – | > 6.25 | 87 | 0.00628 (≈ 0.00929 µM) | – | 0.00889 (≈ 0.0132 µM) | – | – | – | – |
| CC(=O)O[C@H]1CC2C(C3CC[C@H](C(C)CCC(N)=O)[C@]31C)[C@H](OC(C)=O)C[C@@H]1CC3(CC[C@]21C)OOC1(CCC(C)CC1)OO3 (stereo partly drawn) [21/1C30, 7α,12α-Diacetoxy-5β-cholan-24-amide-3-spiro-6′-(1′,2′,4′,5′-tetraoxacyclohexane)-3′-spiro-1″-((4″S)-methyl)cyclohexane] | 6.25 (≈ 9.86 µM) | 0.39 | – | 99 | 0.0127 | 0.70 | 0.00894 | – | – | – | 2.43 (≈ 3.83 µM) | – | – | – | – | – |
| CNC(=O)CCC(C)[C@H]1CCC2C3C(C[C@H](OC(C)=O)[C@@]21C)[C@@]1(C)CCC2(C[C@H]1C[C@H]3OC(C)=O)OOC1(CCC(C)CC1)OO2 (stereo partly drawn) [22/1C31, N-Methyl-7α,12α-diacetoxy-5β-cholan-24-amide-3-spiro-6′-(1′,2′,4′,5′-tetraoxacyclohexane)-3′-spiro-1″-((4″S)-methyl)cyclohexane] | 6.25 (≈ 9.65 µM) | 0.29 | – | 99 | 0.01079 | 0.71 | 0.00769 | – | – | – | 1.83 (≈ 2.82 µM) | – | – | – | – | – |
| CCNC(=O)CCC(C)[C@H]1CCC2C3C(C[C@H](OC(C)=O)[C@@]21C)[C@@]1(C)CCC2(C[C@H]1C[C@H]3OC(C)=O)OOC1(CCC(C)CC1)OO2 (stereo partly drawn) [23/1C32, N-Ethyl-7α,12α-diacetoxy-5β-cholan-24-amide-3-spiro-6′-(1′,2′,4′,5′-tetraoxacyclohexane)-3′-spiro-1″-((4″S)-methyl)cyclohexane] | >6.25 | – | – | 21 | 0.01032 | 0.64 | 0.00657 | – | – | – | – | – | – | – | – | – |
| CCCNC(=O)CCC(C)[C@H]1CCC2C3C(C[C@H](OC(C)=O)[C@@]21C)[C@@]1(C)CCC2(C[C@H]1C[C@H]3OC(C)=O)OOC1(CCC(C)CC1)OO2 (stereo partly drawn) [24/1C33, N-(n-Propyl)-7α,12α-diacetoxy-5β-cholan-24-amide-3-spiro-6′-(1′,2′,4′,5′-tetraoxacyclohexane)-3′-spiro-1″-((4″S)-methyl)cyclohexane] | >6.25 | – | – | 0 | 0.05741 | 0.98 | 0.05611 | – | – | – | – | – | – | – | inactive | – |
| NNC(=O)c1ccncc1 [Isoniazid, reference compound] | – | – | > 1000 | – | – | – | – | 0.025 to 0.05 (≈ 0.182 to 0.365 µM) | – | – | – | – | 0.05 µg/mL and 0.36 µM | – | – | > 40,000 |

Reference: patent publication US6906098B2, “Mixed steroidal 1,2,4,5-tetraoxane compounds and methods of making and using thereof” (priority 2002, dated 2005)
